Data: patent US5093231A, “Substrate composition for alkaline phosphatase and method for assay using same” (Becton, Dickinson and Company, priority 1991, dated 1992)

Columns and labels:
AP from the intestine = details: Van Belle, Biochim. et Biophys. Acta., 289, 158 (1972); cited from earlier work
[1] = cited from earlier work
[2] = system: bovine liver alkaline phosphatase; assay: Accelerated stability of levamisole (and its p-bromo analogue) in various buffers; functional amount measured by inhibition of bovine liver AP; details: for Percent of Functional Levamisole Remaining: Day 0
Description: (§1) Various buffers were prepared at 100 mM concentrations, containing 1 mM magnesium chloride, and adjusted to pH 9.8. […] (accelerated decomposition study). […] Bovine liver AP was added and the reaction kinetics were followed at 405 nm.

[3] = as above; details: pH 9.8
Description: as §1

[4] = system: bovine liver alkaline phosphatase; assay: Potency of the p-bromo analogue relative to levamisole as AP inhibitor; assay type: biochemical

SMILES: c1ccc([C@H]2CN3CCSC3=N2)cc1 [levamisole, (-)2,3,5,6-tetrahydro-6-phenylimidazo[1,2-b]thiazole]
- fold less potent toward AP from the intestine than toward AP from several mammalian tissue types (AP from the intestine): approximately 100 fold
- decomposition rate at pH 7.9 relative to pH 2 ([1]; elevated temperature, Dickinson et al., Analyst, 96, 248 (1971)): 70 times
- pH of solution at which levamisole hydrolyzes ([1]; in solution): ≥ 4
- Percent of Functional Levamisole Remaining ([2]; AMP buffer 100 mM, 1 mM magnesium chloride, pH 9.8, 45° C., 1 mM levamisole): 100%
- Percent of Functional Levamisole Remaining ([2]; AMPD buffer 100 mM, 1 mM magnesium chloride, pH 9.8, 45° C., 1 mM levamisole): 100%
- Percent of Functional Levamisole Remaining ([2]; Carbonate buffer 100 mM, 1 mM magnesium chloride, pH 9.8, 45° C., 1 mM levamisole): 100%
- Percent of Functional Levamisole Remaining ([2]; Diethanolamine buffer 100 mM, 1 mM magnesium chloride, pH 9.8, 45° C., 1 mM levamisole): 100%
- Percent of Functional Levamisole Remaining ([2]; Glycine buffer 100 mM, 1 mM magnesium chloride, pH 9.8, 45° C., 1 mM levamisole): 100%
- Percent of Functional Levamisole Remaining ([2]; Triethanolamine buffer 100 mM, 1 mM magnesium chloride, pH 9.8, 45° C., 1 mM levamisole): 100%
- stability of levamisole compared between buffers ([2]; pH 9.8, 45° C., summary of Table I): substantially greater in AMPD and particularly in AMP than in other buffers
- remaining at 72 h, 1000 µM ([3]; amp buffer): 118%
- remaining at 216 h, 1000 µM ([3]; amp buffer): 107%
- remaining at 408 h, 1000 µM ([3]; amp buffer): 87.1%
- remaining at 72 h, 1000 µM ([3]; ampd buffer): 110%
- remaining at 216 h, 1000 µM ([3]; ampd buffer): 90.2%
- remaining at 408 h, 1000 µM ([3]; ampd buffer): 71.7%
- remaining at 72 h, 1000 µM ([3]; carbonate buffer): 63.8%
- remaining at 216 h, 1000 µM ([3]; carbonate buffer): 32.1%
- remaining at 408 h, 1000 µM ([3]; carbonate buffer): 13.7%
- remaining at 72 h, 1000 µM ([3]; diethanolamine buffer): 79.8%
- remaining at 216 h, 1000 µM ([3]; diethanolamine buffer): 9.12%
- remaining at 408 h, 1000 µM ([3]; diethanolamine buffer): 0.31%
- remaining at 72 h, 1000 µM ([3]; glycine buffer): 0.08%
- remaining at 216 h, 1000 µM ([3]; glycine buffer): 0.02%
- remaining at 408 h, 1000 µM ([3]; glycine buffer): 0%
- remaining at 72 h, 1000 µM ([3]; triethanolamine buffer): 94.4%
- remaining at 216 h, 1000 µM ([3]; triethanolamine buffer): 66.6%
- remaining at 408 h, 1000 µM ([3]; triethanolamine buffer): 37.6%

SMILES: Brc1ccc([C@H]2CN3CCSC3=N2)cc1 [p-bromolevamisole]
- fold more potent than levamisole [4]: approximately 10 fold
- Percent of Functional Levamisole Remaining ([2]; AMP buffer, as in Example I (pH 9.8, 45° C.), 0.1 mM p-bromolevamisole): 100%
- Percent of Functional Levamisole Remaining ([2]; AMPD buffer, as in Example I (pH 9.8, 45° C.), 0.1 mM p-bromolevamisole): 100%
- Percent of Functional Levamisole Remaining ([2]; Carbonate buffer, as in Example I (pH 9.8, 45° C.), 0.1 mM p-bromolevamisole): 100%
- Percent of Functional Levamisole Remaining ([2]; Diethanolamine buffer, as in Example I (pH 9.8, 45° C.), 0.1 mM p-bromolevamisole): 100%
- Percent of Functional Levamisole Remaining ([2]; Glycine buffer, as in Example I (pH 9.8, 45° C.), 0.1 mM p-bromolevamisole): 100%
- Percent of Functional Levamisole Remaining ([2]; Triethanolamine buffer, as in Example I (pH 9.8, 45° C.), 0.1 mM p-bromolevamisole): 100%
- decomposition compared with the parent compound levamisole ([2]; pH 9.8, 45° C., summary of Table II): quite a bit faster than the parent compound
- remaining at 72 h, 100 µM ([3]; amp buffer): 55.4%
- remaining at 216 h, 100 µM ([3]; amp buffer): 23.9%
- remaining at 408 h, 100 µM ([3]; amp buffer): 9.6%
- remaining at 72 h, 100 µM ([3]; ampd buffer): 74%
- remaining at 216 h, 100 µM ([3]; ampd buffer): 37.3%
- remaining at 408 h, 100 µM ([3]; ampd buffer): 18.5%
- remaining at 72 h, 100 µM ([3]; carbonate buffer): 44.4%
- remaining at 216 h, 100 µM ([3]; carbonate buffer): 10.8%
- remaining at 408 h, 100 µM ([3]; carbonate buffer): 2.62%
- remaining at 72 h, 100 µM ([3]; diethanolamine buffer): 33.6%
- remaining at 216 h, 100 µM ([3]; diethanolamine buffer): 1.3%
- remaining at 408 h, 100 µM ([3]; diethanolamine buffer): 0.53%
- remaining at 72 h, 100 µM ([3]; glycine buffer): 0.29%
- remaining at 216 h, 100 µM ([3]; glycine buffer): 0.25%
- remaining at 408 h, 100 µM ([3]; glycine buffer): 0%
- remaining at 72 h, 100 µM ([3]; triethanolamine buffer): 59%
- remaining at 216 h, 100 µM ([3]; triethanolamine buffer): 22.1%
- remaining at 408 h, 100 µM ([3]; triethanolamine buffer): 7.86%
